This passage reports IC50 results from patent US8211854B2, “Methods for inhibiting protein kinases” (Schering Corporation, priority 2005, dated 2012).

pIC50: −log10 of the molar value. Read-outs that look alike come from different tables or passages of the source.

This experiment has as its target T1, His-CHK1 (Homo sapiens, UniProt O14757).
T1 construct: fused on or other part: His tag
T1 sequence (O14757 1-265 limits assumed): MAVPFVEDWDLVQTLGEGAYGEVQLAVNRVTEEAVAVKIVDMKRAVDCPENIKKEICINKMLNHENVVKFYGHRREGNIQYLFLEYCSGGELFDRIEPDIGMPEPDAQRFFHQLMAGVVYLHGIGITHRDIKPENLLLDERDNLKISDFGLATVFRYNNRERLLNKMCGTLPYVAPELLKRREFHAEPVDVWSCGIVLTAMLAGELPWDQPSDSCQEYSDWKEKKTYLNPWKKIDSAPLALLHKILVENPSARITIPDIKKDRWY
The experiment can be described thus: CHK1 SPA Assay. Type of experiment: biochemical.

Where [1] appears, read: recombinant His-CHK1, biotinylated CDC25C peptide substrate, 1 μM ATP, 2 hours at room temperature, read-out: CHK1 inhibitory activity (IC50).
The mark [2] stands for this setting: read-out: CHK1 inhibitory activity (IC50).

By pIC50 is commonly meant the IC50 on a negative log10 scale, so that one unit is a factor of ten. Consider `Nc1c(Br)c(C2CCCNC2)nc2c(-c3ccoc3)cnn12` (stereo not drawn), for which the pIC50 under setting [1] was 7.60.
As for `Cn1cc(-c2cnn3c(N)c(I)c(C4CCCNC4)nc23)cn1` (stereo not drawn), under setting [2], the negative-log IC50 (pIC50) was 8.52.
In the case of `N#Cc1cc(-c2cnn3c(N)c(Br)c(C4CCCNC4)nc23)co1` (stereo not drawn), under setting [1], the pIC50 is 8.40.
Turning to `Nc1c(Br)c(N2CC[C@H](N)C2)nc2c(-c3ccsc3)cnn12`, under setting [1], the pIC50 was 6.37.
Turning to `Cn1cc(-c2cnn3c(N)c(Br)c(C4CNCCS4)nc23)cn1` (stereo not drawn), under setting [1], the pIC50 is 8.22.
Still for that read-out and setting: under `Cn1cc(-c2cnn3c(N)c(Br)c(CCCN)nc23)cn1` stands 7.96.
`Cn1cc(-c2cnn3c(N)c(Br)c(CC4CCCNC4)nc23)cn1` (stereo not drawn): the pIC50 was 8.05.
For `Cn1cc(-c2cnn3c(N)cc(CC4CCNCC4)nc23)cn1`, under setting [1], the pIC50 was 6.40.
Still for that read-out and setting: under `N#Cc1ccc(-c2cnn3c(N)cc(C4CCCNC4)nc23)cc1` (stereo not drawn) stands 6.92.
Consider `Cn1cc(-c2cnn3c(N)c(-c4cccs4)c(C4CCCNC4)nc23)cn1` (stereo not drawn), for which the pIC50 under setting [1] is 7.05.
For `CC#Cc1c(C2CCCNC2)nc2c(-c3cnn(C)c3)cnn2c1N` (stereo not drawn), under setting [2], the pIC50 is 7.35.
`Cn1cc(-c2cnn3c(Nc4ccc(-n5ccnc5)cc4)cc(C4CCCNC4)nc23)cn1` (stereo not drawn): the pIC50 under setting [1] is 7.22.
Still for that read-out and setting: under `CN(C)c1cccc(Nc2cc(C3CCCNC3)nc3c(-c4cnn(C)c4)cnn23)c1` (stereo not drawn) stands 6.60.
As for `Cn1cc(-c2cnn3c(Nc4cccc(S(N)(=O)=O)c4)cc(C4CCCNC4)nc23)cn1` (stereo not drawn), the pIC50 under setting [1] is 6.41.
Turning to `Cc1cc(Nc2cc(C3CCCNC3)nc3c(-c4cnn(C)c4)cnn23)sn1` (stereo not drawn), the pIC50 was 8.15.
As to `Cn1cc(-c2cnn3c(Nc4ccncc4)cc(C4CCCNC4)nc23)cn1` (stereo not drawn), under setting [1], the pIC50 was 7.00.
Turning to `Cc1cc(Nc2cc(C3CCCNC3)nc3c(-c4coc(C#N)c4)cnn23)sn1` (stereo not drawn), the pIC50 under setting [1] is 8.15.
Same read-out and setting: under `Cc1cc(Nc2cc(N3CC[C@@H](N)C3)nc3c(-c4cnn(C)c4)cnn23)sn1` stands 7.30.
